Reference: patent publication US20130149721A1, “Methods for Inhibiting Amyloid Precursor Protein and Beta-Amyloid Production and Accumulation” (WISCONSIN ALUMNI RESEARCH FOUNDATION, priority 2008, published 2013)

System: FMRP-associated APP mRNA in WT SN
Assay: FMRP immunoprecipitation and RTqPCR of associated APP mRNA in synaptoneurosomes
Format: cell-based, mouse
Procedure: SNs were prepared from WT and Fmr-1 KO mouse cortical tissue (Dunkley et al., 1988, Brain Res 441: 59-71; Bagni et al., 2000, J Neuorsci 20: RC76). Briefly, mouse pups aged 14-17 d were killed by carbon dioxide asphyxiation followed by removal of the brain cortices. The cortices were washed in ice-cold gradient medium (GM buffer: 0.25 M sucrose, 5 mM Tris (pH 7.5), and 0.1 mM EDTA), transferred to a glass dounce homogenizer containing ice-cold GM buffer, and gently homogenized with five strokes of the loose pestle followed by five strokes of the tight pestle. The homogenate was spun at 1000 g for 10 min at 4° C. in round-bottom tubes to pellet cellular debris and nuclei. […] The protein concentration of the SNs was determined by Bradford assay and ranged from 200-500 ng/μl. […]
SN lysates were precleared with protein A magnetic beads and immunoprecipitated with 10 μl RNasin, 10 μg 7G1-1 antiFMRP antibody (or in the absence of antibody as a control), and 100 μl packed fresh protein A magnetic beads for 3 h at 4° C. […] The final pellet was suspended in DEPC-treated water, solubilized 10 min at 60° C., and reverse transcribed with Qiagen Omniscript and random nonamer primer (60 min at 37° C., 5 min at 93° C.). cDNA produced in this reaction was diluted 5-fold and analyzed for APP by qPCR as described immediately above. […]

## N[C@@H](C(=O)O)c1cc(O)cc(O)c1 (racemic) [DHPG, (R,S)-3,5-dihydroxyphenylglycine]
WT SN contacted with DHPG
  time to loss of APP mRNA-FMRP complex: ≤ 5 min
WT SN, untreated vs 100 μM DHPG, 60 min
  difference in FMRP-associated APP mRNA: > 60 fold
